The target in the experiment is T1, human insulin (HI) (Homo sapiens, UniProt P01308).
T1 construct: gene INS; HI (Actrapid)
The experiment can be described thus: Thioflavin-T fibrillation assay with insulin ([…] HCl, pH […] °C, […] h). Format: biochemical.

For 1 molecule, EC50 results are on record in publication PMC11720140, “Evaluation of the Anti-Amyloid and Anti-Inflammatory Properties of a Novel Vanadium(IV)–Curcumin Complex in Lipopolysaccharides-Stimulated Primary Rat Neuron-Microglia Mixed Cultures” (International Journal of Molecular Sciences, 2024).

T1 sequence (P01308 25-54): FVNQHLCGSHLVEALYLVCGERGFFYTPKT
T1 sequence (P01308 90-110): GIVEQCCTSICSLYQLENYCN

The EC50 is the concentration at which the effect is half-maximal. With `COc1cc(/C=C/C(=O)CC(=O)/C=C/c2ccc(O)c(OC)c2)ccc1O` [Curcumin], the EC50 amounted to 44.1 µM. This counts as double-digit micromolar.
